From US5494909A, “Substituted oxazinoisoquinoline derivatives, pharmaceutical compositions containing them and process for preparing same” (priority 1991, dated 1996)

Key:
[1] = tested on: excitatory amino acid receptor-dependent calcium channels; conditions: literature; cited from earlier work
[2] = tested on: Veratrine-stimulated Ca uptake, synaptosomes prepared from rat brain; format: biochemical, rat (Wistar)
Description: (§1) The calcium uptake-inhibitory effect of the compounds of the formula (I) according to the invention was studied on synaptosomes prepared from rat brain by using a method described in J. Neurochem.
(§2) Wistar rats weighing 180 to 200 g were decapitated and the brains were collected in ice-cold physiological saline, the cortex was removed and purified from the white matter. The tissue was homogenized by a glass-teflon potter in 10 volumes of a saccharose solution of 0.32 moles/liter concentration. The homogenate was centrifuged at 1000×g in a Janetzki K-70 centrifuge at 4° C. for 10 minutes, the supernatant was centrifuged at 12000×g in a Hitachi CR-26H centrifuge at 4° C. for 20 minutes. The sediment was suspended in a saccharose solution of 0.32 moles/liter concentration, then the protein content of the preparation was adjusted to 20 mg/ml.
Components of the solution used for incubation were as follows: […]
After placing the filter disks in glass cuvets, 10 ml of scintillation cocktail [containing 1000 ml of toluene, 400 ml of abs. ethanol, 10 ml of dioxane, 6 g of 2,5-diphenyloxazole and 0.15 g of 1,4-bis(5-phenyl-2-oxazolyl)benzene] and the radioactivity of the samples was measured by using an 1219 Rackbeta type liquid scintillation spectrophotometer (product of LKB Wallace Company).

[3] = tested on: genetically hypertensive rats (SHR); test: The hypobaric hypoxia test; format: in vivo, rat (genetically hypertensive; conditions: Rattus norvegicus, 1 h; male SHR rats; 22.66 kPa; one hour after administration; protected = survival time 30% longer than control
Description: The antihypoxic effect of the target compounds was studied on genetically hypertensive rats (SHR), which are particularly sensitive to hypoxic insults. Male rats weighing 210 to 230 g each were used for these experiments.
The hypobaric hypoxia test
The experimental animals were placed in pairs in a desiccator of 6 liters volume one hour after administration of the compound to be tested. The pressure in the desiccator was decreased to 22.66 kPa (170 mmHg) during 20 seconds. The time elapsing from this point until the last respiratory movement was measured. An animal was considered to be protected when its survival time was by 30% longer in comparison with the control group.

Oral toxicity (LD50) = conditions: in vivo
[4] = tested on: Potassium-stimulated Ca uptake, synaptosomes prepared from rat brain; test: Inhibition of potassium-stimulated calcium uptake into rat brain synaptosomes; conditions: for IC50: read-out: Inhibition of Potassium-stimulated Ca uptake IC50, 60 mmoles/l KCl, rat synaptosomes, pH 7.4, 37° C., 20 seconds
Description: as §1, §2
Components of the solution used for incubation were as follows:
Incubation solution was saturated with oxygen containing 5% by volume of carbon dioxide until reaching a pH value of 7.4. The test compounds and the synaptosome preparation in an amount corresponding to 1 mg of protein were added into the incubation solution. The final volume of incubation was 1 ml. The samples were pre-incubated at 37° C. for 20 minutes.
The calcium uptake was initiated by addition of a 45CACl2 solution of 2.8 kBq (75 nCi) activity. Potassium chloride was used in a concentration of 60 mmoles/l for the investigation of potassium-stimulated calcium uptake; sodium chloride was added in the same concentration to the control samples.
The incubation time was 20 seconds. The reaction stopped by adding 5 ml of a stopping solution containing 120 mmoles/l of sodium chloride, 5 mmoles/l of potassium chloride, 5 mmoles/l of EGTA [ethylene glycol bis(β-aminoethyl)ether-N,N, N',N'-tetraacetic acid]and 20 mmoles/l of TRIS (pH 7.4).

[5] = qualitative / comparison with reference drug

SMILES	effect on excitatory amino acid receptor-dependent calcium channels (in words) [1]	veratrine-induced calcium uptake inhibitory effect (in words) [2, 5]	IC50 ([2]; veratrine 20 μmoles/l, rat synaptosomes, pH 7.4, 37° C., 20 seconds, read-out: Inhibition of Veratrine-stimulated Ca uptake IC50) [µM]	ED50 [3] [mg/kg]	LD50 (Oral toxicity (LD50)) [mg/kg]	potassium-induced calcium uptake inhibitory effect (in words) [4, 5]	IC50 [4] [µM]
C[C@]12N[C@H](Cc3ccccc31)c1ccccc12 [MK-801, (+)-5-methyl-10,11-dihydro-5H-dibenzo[a,d]cyclohepten-5,10-imine]	inhibit the excitatory amino acid receptor-dependent calcium channels						
COc1cc2c(cc1OCc1ccccc1)CCN1C(=Nc3ccc(C)cc3)OCCC21.Cl (stereo not shown) [compound 1507136, 9-benzyloxy-10-methoxy-4-(p-tolylimino)-1,6,7,11b-tetrahydro-2H,4H-1,3-oxazino[4,3-a]isoquinoline hydrochloride]		to a higher degree than flunarizine did	0.29	8	1400	exceeds that of cinnarizine	23.9
COCCOC(=O)C1=C(C)NC(C)=C(C(=O)OC(C)C)C1c1cccc([N+](=O)[O-])c1 (stereo not shown) [nimodipine, isopropyl 2methoxyethyl 1,4dihydro-2,6-dimethyl-4-(mnitrophenyl)-3,5-pyridinedicarboxylate, reference compound]				8			208
Fc1ccc(C(c2ccc(F)cc2)N2CCN(C/C=C/c3ccccc3)CC2)cc1 [flunarizine]				50			
